Reference: ChEMBL document CHEMBL4888484, “Replenishing the malaria drug discovery pipeline: Screening and hit evaluation of the MMV Hit Generation Library 1 (HGL1) against asexual blood stage Plasmodium falciparum ,using a nano luciferase reporter read-out” (2022)
pIC50: −log10 of the molar value.

Columns and labels:
Plasmodium falciparum [1] = assay: Hit confirmation in dose-response curve in NF54 nanoGlo assay, at 72h; assay type: functional, organism-based, Erythrocyte; design: timepoint 72 hour; details: Plasmodium falciparum, NF54, Erythrocyte, 72 h
Plasmodium falciparum [2] = assay: Hit confirmation in dose-response curve in NF54 pLDH assay, at 72h; assay type: functional, organism-based; design: timepoint 72 hour; details: NF54, Erythrocyte
Plasmodium falciparum [3] = assay: Hit confirmation in dose-response curve in Dd2 pLDH assay, at 72h; assay type: functional, organism-based; design: timepoint 72 hour; details: Dd2, Erythrocyte
Plasmodium falciparum [4] = assay: Hit confirmation in dose-response curve in NF54 nanoGlo assay, at 12h; assay type: functional, organism-based, Erythrocyte; design: timepoint 12 hour; details: Plasmodium falciparum, NF54, Erythrocyte, 12 h
[5] = Hit confirmation in dose-response curve in HepG2 cytotoxicity assay, at 72h; assay type: toxicity, cell-based; design: timepoint 72 hour; details: human, HepG2 cells

| SMILES | pIC50 (Plasmodium falciparum [1]) | pIC50 (Plasmodium falciparum [2]) | pIC50 (Plasmodium falciparum [3]) | pIC50 (Plasmodium falciparum [4]) | IC50 at 72 h [5] [µM] |
| --- | --- | --- | --- | --- | --- |
| COc1ccc2cccc(NC(=O)c3cc(-c4cc(OC)c(OC)c(OC)c4)n[nH]3)c2n1 | 5.66 | 5.01 | < 5.00 | 5.03 | > 10 |
| O=S(=O)(c1cccc(Cl)c1)N1CCc2nc(N3CCCCC3)nc(Oc3ccccc3)c2C1 | 5.71 | 5.52 | 5.56 | < 5.00 | > 10 |
| Cc1ccc[n+](Cc2ccc3ccccc3n2)c1 | 5.52 | 5.49 | 5.54 | < 5.00 | > 10 |
| Brc1cccc(-c2ccc(-c3cc(-c4ccccc4)nnc3-c3ccccc3)o2)c1 | 5.18 | < 5.00 | < 5.00 | 5.70 | > 10 |
| Cc1cc(C)c(NC(=O)OCc2cccc3cccnc23)c(C)c1 | 5.98 | 5.55 | 5.64 | < 5.00 | > 10 |
| CN(C)c1nc(N)cc(-c2cccc3cccnc23)n1 | 5.70 | 5.42 | 5.46 | < 5.00 | > 10 |
| Oc1cc(OCc2ccccc2F)ccc1-c1[nH]ncc1-c1ccccc1 | 5.66 | 5.39 | 5.51 | 5.41 | > 10 |
| Cc1ccc(OCCNc2cc([C@H]3C[C@H](N)C3)nc(C3CC3)n2)cc1C | 5.48 | 5.35 | 5.36 | 5.25 | > 10 |
| Cc1cc(=O)[nH]c(-n2nc(C3CC3)cc2NC(=O)C(c2ccccc2)c2ccccc2)n1 | 6.02 | 5.67 | 5.51 | 5.08 | 7.59 |
| COc1ccc(C(=O)N(C(=O)c2ccc(OC)cc2)c2c3c(nc4ccccc24)CCCC3)cc1 | 5.64 | 5.31 | 5.41 | 5.49 | > 10 |
| CCC(=O)N1CCc2sc(S(=O)(=O)N3CCN(c4cc(C)ccc4C)CC3)cc2C1 | 5.23 | < 5.00 | < 5.00 | < 5.00 | > 10 |
| COc1ccc(C2=CN(CC(=O)c3ccc(Cl)cc3)C3=CCCCCN23)cc1 | 5.53 | 5.53 | 5.50 | < 5.00 | > 10 |
| Cc1nnc(NC(c2cnc3ccccc3c2)[C@H]2C[C@@H](O)C2)s1 (stereo not given in full) | 5.39 | < 5.00 | < 5.00 | 5.80 | > 10 |
| CC(C)O[C@@H]1CCN(C[C@H](O)c2ccc(C(F)(F)F)cc2)C1 | 5.68 | 5.51 | 5.55 | 5.48 | > 10 |
| CCn1cc(C#N)c(=O)c2cc(F)c(N3CCN(Cc4ccccc4)CC3)cc21 | < 5.00 | < 5.00 | < 5.00 | < 5.00 | > 10 |
| COc1ccc(Cl)cc1C(=O)Nc1cc(C2CC2)nn1-c1nc(C)cc(=O)[nH]1 | 5.75 | < 5.00 | 5.09 | < 5.00 | > 10 |
| COc1cc2c(cc1OC)[C@@H](NC(=O)c1cnc(C3(C)OCCO3)s1)CCCC2 | 5.69 | 5.13 | 5.32 | 5.32 | > 10 |
| COc1ccc(-[n+]2c(-c3ccc(-c4ccccc4)cc3)cn3c2COCC3)cc1 | 5.67 | 5.62 | 5.68 | < 5.00 | > 10 |
| O=C(Nc1cccc2cccnc12)c1ccccn1 | 6.10 | 6.06 | 5.70 | < 5.00 | 3.47 |

| SMILES | pIC50 (Plasmodium falciparum [1]) | pIC50 (Plasmodium falciparum [2]) | pIC50 (Plasmodium falciparum [3]) | pIC50 (Plasmodium falciparum [4]) | IC50 at 72 h [5] [µM] |
| --- | --- | --- | --- | --- | --- |
| CCn1cc(-c2nc(-c3ccccc3C)no2)c(=O)c2cc(F)c(N3CCCCC3)cc21 | 5.22 | 4.96 | 4.99 | < 5.00 | > 10 |
| Cc1cccc2c(-c3cc(N)nc(N)n3)c[nH]c12 | 6.00 | 5.92 | 5.96 | 5.50 | > 10 |
| Cc1cc(OC[C@@H](O)CNC(C)(C)CC(C)(C)C)cc(C)c1Cl | 5.62 | 5.08 | 5.39 | 5.36 | 10.5 |
| CCOC(=O)C1CCC(CN(Cc2ccc(OC)cc2)S(=O)(=O)c2cc(C(=O)Nc3ccc(OCC)cc3)ccc2F)CC1 (stereo not given) | 5.30 | < 5.00 | < 5.00 | 5.10 | > 10 |
| COc1ccc(-c2cc3nc(C)cc(N4CCN(C/C=C/c5ccccc5)CC4)n3n2)cc1OC | 5.65 | 5.13 | 5.25 | 5.31 | > 10 |
| CN1CCN([C@H]2CCN(c3ccnc4ccc(Cl)cc34)C[C@H]2CCCO)CC1 | 5.76 | 5.67 | 5.83 | 5.53 | > 10 |
| CC[C@H](O)CN1CCC(Nc2ncnc3cc(Cl)ccc23)CC1 | 5.79 | 5.74 | 5.82 | 5.53 | > 10 |
| O=C(Nc1ccc(C2(c3ccc(NC(=O)c4ccc(F)cc4)cc3)c3ccccc3C(=O)c3ccccc32)cc1)c1ccc(F)cc1 | 5.69 | 5.23 | 5.09 | 5.30 | > 10 |
| CCNC(=O)N1CC[C@H](Oc2ccc3ccccc3n2)C1 | 5.57 | 5.13 | 5.43 | < 5.00 | > 10 |
| NC(=O)C(NC(=O)c1cccc(Cl)c1)C(N)=O | < 5.00 | < 5.00 | < 5.00 | < 5.00 | > 10 |
| Cc1nn(-c2nc3ccccc3[nH]2)c2c1[C@@H](c1cccnc1)CC(=O)N2 | 5.81 | 5.19 | < 5.00 | 5.66 | > 10 |
| Cc1c(C)c2ccc(NC(=O)c3cc4ccccc4o3)cc2[nH]c1=O | 5.78 | 5.09 | 5.49 | 5.46 | > 10 |
| CCOc1cc(-c2cc(-c3ccccc3O)nc3ccc4ccccc4c23)cc(Br)c1O | 5.79 | 5.55 | 5.58 | 5.44 | > 10 |
| CCc1ccc(CN2CCC[C@H](c3ncc[nH]3)C2)nc1 | 5.94 | 5.81 | 5.75 | 4.97 | > 10 |
| CN1CCC(NCC[C@@H](Cc2ccccc2Cl)c2ccc(Cl)cc2)CC1 | 5.82 | 5.59 | 5.65 | 5.61 | > 10 |
| COc1ccc(CCNC(=O)C2CCN(c3nccn4nc5c(c34)CCCC5)CC2)cc1OC | 5.39 | < 5.00 | < 5.00 | 5.05 | > 10 |
| Oc1cccc(CN2CCC3(CC2)C[C@H](c2ccccc2)CN(C2CC2)C3)c1 | 5.49 | 5.20 | 5.20 | 5.29 | > 10 |
| CC12CN(S(=O)(=O)c3ccc4c(c3)OCCO4)C3(C(=O)OCc4ccccc4)CC1CCC23C (stereo not given) | 5.55 | 5.42 | 5.49 | < 5.00 | > 10 |
